Experimental data: PubChem BioAssay AID330 (DTP/NCI, 2004)
“And” between values parts separate entries of the source, which are not always exact repeats. Equal entries are not always repeated. Inconclusive results and toxic doses are left out.

Test system: P388 leukemia ip, CD2F1 mice, survival T/C
Experiment: NCI In Vivo Anticancer Drug Screen. Data for tumor model P388 Leukemia (intraperitoneal) in CD2F1 (CDF1) mice
Conditions: endpoint: median survival time, higher = longer survival
Summary of the method: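 Mice carrying the transplanted tumor received test compound or vehicle. Survival was recorded in each group, and the value is the treated-group measurement divided by that of the vehicle-treated control group.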

[1] = dose: 50.0 mg/kg/injection, schedule: Q01DX009 (ip), vehicle: Klucel (hydroxypropylcellulose) (HPC)
[2] = dose: 100.0 mg/kg/injection, schedule: Q01DX009 (ip), vehicle: Klucel (hydroxypropylcellulose) (HPC)
[3] = dose: 60.0 mg/kg/injection, schedule: Q01DX005 (ip), vehicle: saline with Tween-80
[4] = dose: 120.0 mg/kg/injection, schedule: Q01DX005 (ip), vehicle: saline with Tween-80
[5] = dose: 50.0 mg/kg/injection, schedule: Q01DX001 (ip), vehicle: saline with Tween-80
[6] = dose: 50.0 mg/kg/injection, schedule: Q01DX009 (ip), vehicle: saline with Tween-80
[7] = dose: 100.0 mg/kg/injection, schedule: Q01DX009 (ip), vehicle: saline with Tween-80
[8] = dose: 200.0 mg/kg/injection, schedule: Q01DX009 (ip), vehicle: saline with Tween-80
[9] = dose: 50.0 mg/kg/injection, schedule: Q01DX005 (ip), vehicle: saline with Tween-80

CCOC(=O)CNCc1ccc(Cl)c(Cl)c1
T/C (dose: 6.25 mg/kg/injection, schedule: Q01DX009 (ip), vehicle: Klucel (hydroxypropylcellulose) (HPC)): 100 % of control
T/C (dose: 12.5 mg/kg/injection, schedule: Q01DX009 (ip), vehicle: Klucel (hydroxypropylcellulose) (HPC)): 103 % of control and 97 % of control
T/C (dose: 25.0 mg/kg/injection, schedule: Q01DX009 (ip), vehicle: Klucel (hydroxypropylcellulose) (HPC)): 100 % of control
T/C [1]: 108 % of control and 94 % of control
T/C [2]: 104 % of control

CCn1c(=S)[nH]c2sc3c(c2c1=O)CCCC3
T/C [3]: 92 % of control
T/C [4]: 89 % of control

COCCOP(=O)(N1CC1)N1CC1
T/C (dose: 6.25 mg/kg/injection, schedule: Q04DX003 (ip), vehicle: saline): 118 % of control
T/C (dose: 25.0 mg/kg/injection, schedule: Q01DX009 (ip), vehicle: saline): 181 % of control
T/C (dose: 25.0 mg/kg/injection, schedule: Q04DX003 (ip), vehicle: saline): 177 % of control
T/C (dose: 33.0 mg/kg/injection, schedule: Q04DX003 (ip), vehicle: saline): 150 % of control
T/C (dose: 50.0 mg/kg/injection, schedule: Q01DX009 (ip), vehicle: saline): 122 % of control
T/C (dose: 50.0 mg/kg/injection, schedule: Q04DX003 (ip), vehicle: saline): 175 % of control and 190 % of control
T/C (dose: 75.0 mg/kg/injection, schedule: Q04DX003 (ip), vehicle: saline): 120 % of control

C=[CH][Sn][CH2]CCC
T/C [2]: 112 % of control

Cc1ccc2ccccc2c1N(CC(=O)O)S(=O)(=O)c1ccccc1 (tested in a mixture with another compound)
T/C (dose: 12.5 mg/kg/injection, schedule: Q01DX001 (ip), vehicle: saline with Tween-80): 110 % of control
T/C (dose: 25.0 mg/kg/injection, schedule: Q01DX001 (ip), vehicle: saline with Tween-80): 105 % of control
T/C [5]: 110 % of control

Cc1cccc(C)c1NC(=S)NC(=O)c1ccccc1
T/C [6]: 100 % of control
T/C [7]: 98 % of control
T/C [8]: 100 % of control

O=C1C=CC2(C=C1)OCC(=O)O2
T/C [3]: 100 % of control
T/C [4]: 97 % of control
T/C (dose: 240.0 mg/kg/injection, schedule: Q01DX005 (ip), vehicle: saline with Tween-80): 96 % of control

Cc1nn(-c2ccccc2)c2c1C(c1ccc(Cl)cc1)C(C#N)=C(N)O2 (stereo not given)
T/C [1]: 94 % of control
T/C [2]: 96 % of control

BrCC[Se]c1ccccc1
T/C (dose: 25.0 mg/kg/injection, schedule: Q01DX009 (ip), vehicle: saline with Tween-80): 103 % of control
T/C [6]: 112 % of control and 117 % of control
T/C [7]: 120 % of control and 124 % of control

COC(=O)C1(c2ccccc2)N=C1N(C)C (stereo not given)
T/C (dose: 100.0 mg/kg/injection, schedule: Q04DX002 (ip), vehicle: saline with Tween-80): 94 % of control
T/C (dose: 200.0 mg/kg/injection, schedule: Q04DX002 (ip), vehicle: saline with Tween-80): 94 % of control
T/C (dose: 400.0 mg/kg/injection, schedule: Q04DX002 (ip), vehicle: saline with Tween-80): 102 % of control

CCOC(=O)Nc1nc2cc(C(=O)OC)n(C)c2s1
T/C [6]: 95 % of control
T/C [7]: 86 % of control
T/C [8]: 88 % of control

CC(=O)CC(C)=O.CC(=O)CC(C)=O.CCCn1ccnc1.O=N[O-].[Co]
T/C [5]: 95 % of control
T/C (dose: 100.0 mg/kg/injection, schedule: Q01DX001 (ip), vehicle: saline with Tween-80): 101 % of control and 93 % of control
T/C (dose: 200.0 mg/kg/injection, schedule: Q01DX001 (ip), vehicle: saline with Tween-80): 99 % of control and 120 % of control
T/C (dose: 400.0 mg/kg/injection, schedule: Q01DX001 (ip), vehicle: saline with Tween-80): 108 % of control

Cc1ccc2cccnc2c1NCCCCCNC(C)C
T/C (dose: 12.5 mg/kg/injection, schedule: Q01DX005 (ip), vehicle: saline with Tween-80): 97 % of control
T/C (dose: 25.0 mg/kg/injection, schedule: Q01DX005 (ip), vehicle: saline with Tween-80): 100 % of control
T/C [9]: 100 % of control and 97 % of control

CC(NC(=O)C(C)Oc1ccc(Cl)cc1Cl)C(=O)O (stereo not given)
T/C [9]: 101 % of control
T/C (dose: 100.0 mg/kg/injection, schedule: Q01DX005 (ip), vehicle: saline with Tween-80): 99 % of control
T/C (dose: 200.0 mg/kg/injection, schedule: Q01DX005 (ip), vehicle: saline with Tween-80): 100 % of control
